The text below walks through data of US8076487B2, “Pyridone derivative and herbicide” (Kumiai Chemical Industry Co., Ltd., priority 2006, dated 2011).

Structures are written as SMILES.

Format in all cases: in vivo
Assay [1] has as its system green foxtail (Setaria viridis (L.) P. Beauv.). The assay can be described thus: Test Example 2: herbicidal effect by soil application to upland field. The note with it: soil surface spray, upland field soil, 1,000 g active ingredient per hectare, 21st day after application. The method in brief: (§1)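 Pots of field soil, seeds sown and soil-covered; wettable powder diluted in water sprayed on soil at 1,000 g a.i./ha (1,000 L/ha). Greenhouse-grown; herbicidal effect rated per standard at 21 days post-application.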

In assay [2] the test system is slender amaranth (Amaranthus viridis L.). The description is as above. The note with it: soil surface spray, upland field soil, 1,000 g active ingredient per hectare, 21st day after application. The gist of the method:
as §1

The subject of assay [3] is barnyardgrass (Echinochloa crus-galli (L.) P. Beauv. var. crus-galli). Described as above. The note with it: soil surface spray, upland field soil, 1,000 g active ingredient per hectare, 21st day after application. The method in brief: as §1
Assay [4] has as its system velvetleaf (Abutilon theophrasti medicus). Described as above. The note with it: soil surface spray, upland field soil, 1,000 g active ingredient per hectare, 21st day after application. The gist of the method: as §1
For assay [5], the system named is green foxtail (Setaria viridis (L.) P. Beauv.). The assay can be described thus: Test Example 3: herbicidal effect by application to upland field (foliage treatment). The note with it: 14th day after application; for herbicidal effect, Green Foxtail: foliage treatment, 1,000 g active ingredient per 1 hectare, greenhouse; for herbicidal effect (index), Green Foxtail: foliage treatment, plants grown two weeks, 1,000 g active ingredient per hectare. The gist of the method:
(§2)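 Seeds went into pots of field soil and grew under glass for two weeks. The whole plant was then sprayed from above with diluted wettable powder delivering 1,000 g/ha of active ingredient. Plants stayed in the greenhouse, and injury was graded against a standard 14 days after spraying.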

In assay [6] the test system is slender amaranth (Amaranthus viridis L.). Described as above. The note with it: 14th day after application; for herbicidal effect, Slender Amaranth: foliage treatment, 1,000 g active ingredient per 1 hectare, greenhouse; for herbicidal effect (index), Slender Amaranth: foliage treatment, plants grown two weeks, 1,000 g active ingredient per hectare. The method in brief: as §2

Assay [7] has as its system barnyardgrass (Echinochloa crus-galli (L.) P. Beauv. var. crus-galli). The description is as above. The note with it: 14th day after application; for herbicidal effect, Barnyardgrass: foliage treatment, 1,000 g active ingredient per 1 hectare, greenhouse; for herbicidal effect (index), Barnyardgrass: foliage treatment, plants grown two weeks, 1,000 g active ingredient per hectare. The gist of the method: as §2

Assay [8] concerns velvetleaf (Abutilon theophrasti medicus). Described as above. The note with it: 14th day after application; for herbicidal effect, Velvetleaf: foliage treatment, 1,000 g active ingredient per 1 hectare, greenhouse; for herbicidal effect (index), Velvetleaf: foliage treatment, plants grown two weeks, 1,000 g active ingredient per hectare. The method in brief: as §2
Assay [9] relates to early watergrass (Echinochloa oryzicola Vasing). The assay can be described thus: Test Example 1: herbicidal effect by soil application to paddy field. The note with it: paddy field soil application; active ingredient 1,000 g per 1 hectare; wettable powder added dropwise to water surface the day after sowing; examined on the 21st day after application. The method in brief:
(§3)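 Plants were sown in flooded (3 cm) paddy soil and evaluated for herbicidal effect 21 days after soil application in a greenhouse.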

The test system of assay [10] is heartshape false pickerelweed (Monochoria vaginalis (Burm.f.) C.Presl). The assay is described as above. The note with it: paddy field soil application; active ingredient 1,000 g per 1 hectare; wettable powder added dropwise to water surface the day after sowing; examined on the 21st day after application. The gist of the method:
as §3

Assay [11] concerns Japanese bulrush (Scirpus juncoides Roxb.). Described as above. The note with it: paddy field soil application; active ingredient 1,000 g per 1 hectare; wettable powder added dropwise to water surface the day after sowing; examined on the 21st day after application. The method in brief: as §3

Take `COCCCn1c(C(F)(F)F)ccc(C(=O)c2cnn(C)c2OC(C)=O)c1=O` [IV-48]: the “herbicidal effect (index), Green Foxtail” value in assay [1] was 5 (90% or more of herbicidal effect and crop phytotoxicity). The “herbicidal effect (index), Slender Amaranth” value in assay [2] is 5 (90% or more of herbicidal effect and crop phytotoxicity). Also, the “herbicidal effect (index), Barnyardgrass” value in assay [3] was 4 (70 to less than 90% of herbicidal effect and crop phytotoxicity). For the same compound, the “herbicidal effect (index), Velvetleaf” value in assay [4] is 5 (90% or more of herbicidal effect and crop phytotoxicity). The “herbicidal effect, Green Foxtail” value in [5] was 4 (70 to less than 90% of herbicidal effect and crop phytotoxicity). The “herbicidal effect, Slender Amaranth” value in [6] was 5 (90% or more of herbicidal effect and crop phytotoxicity). Also, in [7], the “herbicidal effect, Barnyardgrass” value is 5 (90% or more of herbicidal effect and crop phytotoxicity). Moreover, the “herbicidal effect, Velvetleaf” value in [8] was 5 (90% or more of herbicidal effect and crop phytotoxicity). The “herbicidal effect, Echinochloa oryzicola Vasing” value in assay [9] is 5 (90% or more of herbicidal effect and crop phytotoxicity). Further, the “herbicidal effect, Monochoria vaginalis (Burm. f.) C. Presl” value (from here on “herbicidal effect, Monochoria vaginalis”) in assay [10] was 5 (90% or more of herbicidal effect and crop phytotoxicity). Moreover, the “herbicidal effect, Scirpus juncoides Roxb.” value in [11] was 5 (90% or more of herbicidal effect and crop phytotoxicity).

Take `O=C1CCCC(O)=C1C(=O)c1ccc(C(F)(F)F)n(-c2ccc(Br)cc2)c1=O` [I-90]: the “herbicidal effect (index), Green Foxtail” value in [1] was 5 (90% or more of herbicidal effect and crop phytotoxicity); in [5] it was 5 (90% or more of herbicidal effect and crop phytotoxicity). For the same compound, the “herbicidal effect (index), Slender Amaranth” value is 5 (90% or more of herbicidal effect and crop phytotoxicity) in [2]; 5 (90% or more of herbicidal effect and crop phytotoxicity) in assay [6]. Moreover, the “herbicidal effect (index), Barnyardgrass” value in [3] is 5 (90% or more of herbicidal effect and crop phytotoxicity); in [7], 5 (90% or more of herbicidal effect and crop phytotoxicity). For the same compound, the “herbicidal effect (index), Velvetleaf” value in [4] was 5 (90% or more of herbicidal effect and crop phytotoxicity); in assay [8], 5 (90% or more of herbicidal effect and crop phytotoxicity). Besides, in assay [9], the “herbicidal effect, Echinochloa oryzicola Vasing” value was 5 (90% or more of herbicidal effect and crop phytotoxicity). Also, the “herbicidal effect, Monochoria vaginalis” value in [10] was 5 (90% or more of herbicidal effect and crop phytotoxicity). In addition, the “herbicidal effect, Scirpus juncoides Roxb.” value in assay [11] is 5 (90% or more of herbicidal effect and crop phytotoxicity).

`N#Cc1cccc(Cn2c(C(F)(F)F)ccc(C(=O)C3=C(O)CCCC3=O)c2=O)c1` [I-118]: in assay [1], the “herbicidal effect (index), Green Foxtail” value was 4 (70 to less than 90% of herbicidal effect and crop phytotoxicity). The “herbicidal effect (index), Slender Amaranth” value in assay [2] is 5 (90% or more of herbicidal effect and crop phytotoxicity). The “herbicidal effect (index), Barnyardgrass” value in [3] was 5 (90% or more of herbicidal effect and crop phytotoxicity). Moreover, the “herbicidal effect (index), Velvetleaf” value in assay [4] was 5 (90% or more of herbicidal effect and crop phytotoxicity). Moreover, the “herbicidal effect, Green Foxtail” value in assay [5] is 5 (90% or more of herbicidal effect and crop phytotoxicity). For the same compound, the “herbicidal effect, Slender Amaranth” value in assay [6] is 5 (90% or more of herbicidal effect and crop phytotoxicity). For the same compound, the “herbicidal effect, Barnyardgrass” value in assay [7] is 5 (90% or more of herbicidal effect and crop phytotoxicity). In assay [8], the “herbicidal effect, Velvetleaf” value is 5 (90% or more of herbicidal effect and crop phytotoxicity). In addition, the “herbicidal effect, Echinochloa oryzicola Vasing” value in [9] was 5 (90% or more of herbicidal effect and crop phytotoxicity). Also, in assay [10], the “herbicidal effect, Monochoria vaginalis” value was 5 (90% or more of herbicidal effect and crop phytotoxicity). Also, in [11], the “herbicidal effect, Scirpus juncoides Roxb.” value is 5 (90% or more of herbicidal effect and crop phytotoxicity).

On to `O=C1CCCC(O)=C1C(=O)c1ccc(C(F)(F)F)n(CS(=O)(=O)CC2CC2)c1=O` [I-58], for which the “herbicidal effect (index), Green Foxtail” value in [1] is 5 (90% or more of herbicidal effect and crop phytotoxicity); in [5], 5 (90% or more of herbicidal effect and crop phytotoxicity). Besides, the “herbicidal effect (index), Slender Amaranth” value in [2] is 5 (90% or more of herbicidal effect and crop phytotoxicity); in [6], 5 (90% or more of herbicidal effect and crop phytotoxicity). In addition, the “herbicidal effect (index), Barnyardgrass” value was 5 (90% or more of herbicidal effect and crop phytotoxicity) in assay [3]; 5 (90% or more of herbicidal effect and crop phytotoxicity) in assay [7]. The “herbicidal effect (index), Velvetleaf” value is 5 (90% or more of herbicidal effect and crop phytotoxicity) in assay [4]; 5 (90% or more of herbicidal effect and crop phytotoxicity) in assay [8]. For the same compound, in assay [9], the “herbicidal effect, Echinochloa oryzicola Vasing” value was 5 (90% or more of herbicidal effect and crop phytotoxicity). The “herbicidal effect, Monochoria vaginalis” value in [10] was 5 (90% or more of herbicidal effect and crop phytotoxicity). The “herbicidal effect, Scirpus juncoides Roxb.” value in [11] was 5 (90% or more of herbicidal effect and crop phytotoxicity).

Take `CC1=NOC(Cn2c(C(F)(F)F)ccc(C(=O)C3=C(O)CCCC3=O)c2=O)C1` (stereo not drawn) [I-126]: the “herbicidal effect (index), Green Foxtail” value in assay [1] is 5 (90% or more of herbicidal effect and crop phytotoxicity). Moreover, the “herbicidal effect (index), Slender Amaranth” value in assay [2] was 5 (90% or more of herbicidal effect and crop phytotoxicity). For the same compound, the “herbicidal effect (index), Barnyardgrass” value in assay [3] is 5 (90% or more of herbicidal effect and crop phytotoxicity). The “herbicidal effect (index), Velvetleaf” value in assay [4] is 5 (90% or more of herbicidal effect and crop phytotoxicity). The “herbicidal effect, Green Foxtail” value in assay [5] is 5 (90% or more of herbicidal effect and crop phytotoxicity). In addition, the “herbicidal effect, Slender Amaranth” value in [6] is 5 (90% or more of herbicidal effect and crop phytotoxicity). Moreover, the “herbicidal effect, Barnyardgrass” value in [7] was 5 (90% or more of herbicidal effect and crop phytotoxicity). In addition, in [8], the “herbicidal effect, Velvetleaf” value was 5 (90% or more of herbicidal effect and crop phytotoxicity). Also, in assay [9], the “herbicidal effect, Echinochloa oryzicola Vasing” value was 5 (90% or more of herbicidal effect and crop phytotoxicity). Besides, in assay [10], the “herbicidal effect, Monochoria vaginalis” value was 5 (90% or more of herbicidal effect and crop phytotoxicity). Moreover, the “herbicidal effect, Scirpus juncoides Roxb.” value in assay [11] is 5 (90% or more of herbicidal effect and crop phytotoxicity).

Regarding `CCc1ccc(C(=O)C2=C(O)CCCC2=O)c(=O)n1-c1ccccc1` [I-230], the “herbicidal effect (index), Green Foxtail” value in assay [1] is 5 (90% or more of herbicidal effect and crop phytotoxicity). Further, in [2], the “herbicidal effect (index), Slender Amaranth” value is 5 (90% or more of herbicidal effect and crop phytotoxicity). In addition, in assay [3], the “herbicidal effect (index), Barnyardgrass” value was 4 (70 to less than 90% of herbicidal effect and crop phytotoxicity). Moreover, the “herbicidal effect (index), Velvetleaf” value in assay [4] is 5 (90% or more of herbicidal effect and crop phytotoxicity). In assay [5], the “herbicidal effect, Green Foxtail” value was 4 (70 to less than 90% of herbicidal effect and crop phytotoxicity). Also, the “herbicidal effect, Slender Amaranth” value in assay [6] is 5 (90% or more of herbicidal effect and crop phytotoxicity). Besides, the “herbicidal effect, Barnyardgrass” value in [7] is 5 (90% or more of herbicidal effect and crop phytotoxicity). In assay [8], the “herbicidal effect, Velvetleaf” value is 5 (90% or more of herbicidal effect and crop phytotoxicity). The “herbicidal effect, Echinochloa oryzicola Vasing” value in assay [9] was 5 (90% or more of herbicidal effect and crop phytotoxicity). Besides, the “herbicidal effect, Monochoria vaginalis” value in assay [10] is 5 (90% or more of herbicidal effect and crop phytotoxicity). Besides, in assay [11], the “herbicidal effect, Scirpus juncoides Roxb.” value was 5 (90% or more of herbicidal effect and crop phytotoxicity).
